Reference: patent US12059422B2 (MEI Pharma, Inc., priority 2011, dated 2024)

Assays:
PI3K gamma = target: T1, PI3K gamma (Homo sapiens, UniProt P48736); experiment: Luciferase-based luminescence assay (ADP Glo), PI3K gamma enzymatic activity; type: biochemical; details: inhibition of enzymatic activity, 25 μM ATP, read-out: IC50 p110γ
T1 construct: purchased Invitrogen Corp., Carlsbad, CA, USA
Procedure, shortened: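 Final enzyme 4.8 nM PI3K beta or 7.6 nM PI3K gamma, with 50 μM PIP2 and 25 μM ATP, 1 h in HEPES pH 7.5 buffer with MgCl2, EGTA, NaCl, CHAPS and DTT. ADP formed measured by ADP-Glo luminescence; IC50 from 10-point curve fits.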

PI3Kα = PI3Kα (Homo sapiens, UniProt P42336); experiment: ELISA assay for PI3Kα: in-cell ELISA, phosphorylation of AKT (Thr308) in MDA-MB-453 cells; type: cell-based; details: cellular, pAKT (Thr308), IGF-1 stimulation, read-out: IC50 p110α
Description: PI3K alpha (PI3Kα) activity was determined by measuring the phosphorylation of AKT (Thr308) using an in-cell ELISA assay. MDA-MB-453 (breast carcinoma) cells were obtained from ATCC (ATCC #HTB-131). Growth medium was DMEM (CellGro #CV-10-013-CV) supplemented with 10% fetal bovine serum, 100 IU/mL penicillin, 100 μg/mL streptomycin, and 1×MEM non-essential amino acids. Phosphate buffered saline (PBS) contained 2.7 M NaCl, 54 mM KCl, 86 mM […] (dibasic, anhydrous), and 28 mM […] (monobasic, anhydrous) at pH 7.2. Stimulation mixture (10×) was 1000 ng/mL LONG® R^3 human IGF-1 (Sigma #I1271) diluted in serum-free DMEM medium (CellGro #CV-10-013-CV). Compounds for testing were dissolved and serially diluted in 100% DMSO (total of 10 concentrations), then diluted in serum-free DMEM to 2× final assay concentration. Fixative solution (2×) was 8% formaldehyde (Amresco #M134) diluted in PBS. Permeabilization solution was PBS supplemented with 0.1% Triton X-100. Blocking buffer was obtained from LiCor (LiCor #927-40000). Wash buffer was PBS supplemented with 0.1% Tween-20. Primary antibody solution was rabbit anti-pAKT^T308 monoclonal antibody (Cell Signaling #2965) and mouse anti-total S6 (Santa Cruz #74459) diluted 1:500 and 1:2000, respectively, in the blocking buffer. Secondary antibody solution was IRDye 800CW-conjugated goat anti-rabbit IgG (LiCor #926-32211) and IRDye 680LT-conjugated goat anti-mouse IgG (LiCor #926-68020) diluted 1:1000 and 1:2000, respectively, in the blocking buffer.
MDA-MB-453 cells were subcultured in growth medium and seeded into flat, clear bottom, 96-well plates (Corning #3904) at 40000 cells/well, then incubated overnight in a 5% CO2 incubator at 37° C. Growth medium in plates was replaced with 100 μL/well serum-free DMEM and incubated overnight at 37° C. in a 5% CO2 incubator. Fresh serum-free DMEM (50 μL/well) was added to plates. Compound treatment was performed by adding 50 μL/well of 2× compound mixture to plates and incubating for 1 hr at 37° C. and 5% CO2, after which 11 μL/well of 10× stimulation mixture was added and plates were incubated for 10 min at 37° C. and 5% CO2. Fixation was performed by adding 110 μL/well of 2× fixative solution to the plates and incubating for 20 min at room temperature. Permeabilization was performed by replacing fixation solution with 150 μL/well permeabilization solution and incubating for 10 min at room temperature. Permeabilization was repeated (for a total of 2 times). Permeabilization solution was replaced with 100 μL/well blocking buffer and plates were incubated for 1 hour at room temperature, after which 100 μL/well of primary antibody solution was added and plates were incubated overnight at 4° C. Plates were washed with wash buffer, after which 100 μL/well of secondary antibody solution was added to the plates and incubated in the dark for 1 hr at room temperature. Plates were washed with wash buffer, followed by a wash with PBS. After completely removing PBS, plates were scanned on the Licor Odyssey Imager. Images were quantified using Licor Odyssey application software. IC50 values were determined by curve fitting using a Collaborative Drug Discovery database (www.collaborativedrug.com).

T1 sequence (P48736 whole entry, species assumed): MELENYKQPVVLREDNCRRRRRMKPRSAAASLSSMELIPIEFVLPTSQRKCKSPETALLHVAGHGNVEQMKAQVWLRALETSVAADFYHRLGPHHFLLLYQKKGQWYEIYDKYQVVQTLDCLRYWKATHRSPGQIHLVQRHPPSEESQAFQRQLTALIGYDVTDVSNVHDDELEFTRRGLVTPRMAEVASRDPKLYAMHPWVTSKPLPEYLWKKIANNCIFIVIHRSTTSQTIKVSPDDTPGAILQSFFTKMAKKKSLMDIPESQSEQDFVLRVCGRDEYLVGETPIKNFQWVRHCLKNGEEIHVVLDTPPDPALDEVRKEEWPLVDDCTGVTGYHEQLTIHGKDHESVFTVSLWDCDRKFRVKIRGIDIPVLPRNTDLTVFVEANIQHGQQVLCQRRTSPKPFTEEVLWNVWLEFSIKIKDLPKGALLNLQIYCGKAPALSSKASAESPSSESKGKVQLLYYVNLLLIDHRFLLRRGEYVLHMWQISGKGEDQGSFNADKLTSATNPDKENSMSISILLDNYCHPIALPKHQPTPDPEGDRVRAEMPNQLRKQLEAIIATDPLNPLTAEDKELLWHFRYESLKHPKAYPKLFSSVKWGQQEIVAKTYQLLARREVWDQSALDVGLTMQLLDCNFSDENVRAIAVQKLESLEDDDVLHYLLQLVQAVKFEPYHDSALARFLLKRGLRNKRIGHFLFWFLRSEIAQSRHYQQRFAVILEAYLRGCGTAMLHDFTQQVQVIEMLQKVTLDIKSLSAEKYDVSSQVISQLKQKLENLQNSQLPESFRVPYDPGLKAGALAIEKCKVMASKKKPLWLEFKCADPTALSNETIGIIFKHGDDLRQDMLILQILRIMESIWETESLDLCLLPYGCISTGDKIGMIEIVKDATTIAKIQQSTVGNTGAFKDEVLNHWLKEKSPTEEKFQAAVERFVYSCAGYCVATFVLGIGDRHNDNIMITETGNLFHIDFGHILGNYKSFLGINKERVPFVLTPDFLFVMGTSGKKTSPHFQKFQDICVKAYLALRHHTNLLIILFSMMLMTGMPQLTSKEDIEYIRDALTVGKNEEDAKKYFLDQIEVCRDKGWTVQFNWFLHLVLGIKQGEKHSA
PI3Kα, sequence (P27986 2-724): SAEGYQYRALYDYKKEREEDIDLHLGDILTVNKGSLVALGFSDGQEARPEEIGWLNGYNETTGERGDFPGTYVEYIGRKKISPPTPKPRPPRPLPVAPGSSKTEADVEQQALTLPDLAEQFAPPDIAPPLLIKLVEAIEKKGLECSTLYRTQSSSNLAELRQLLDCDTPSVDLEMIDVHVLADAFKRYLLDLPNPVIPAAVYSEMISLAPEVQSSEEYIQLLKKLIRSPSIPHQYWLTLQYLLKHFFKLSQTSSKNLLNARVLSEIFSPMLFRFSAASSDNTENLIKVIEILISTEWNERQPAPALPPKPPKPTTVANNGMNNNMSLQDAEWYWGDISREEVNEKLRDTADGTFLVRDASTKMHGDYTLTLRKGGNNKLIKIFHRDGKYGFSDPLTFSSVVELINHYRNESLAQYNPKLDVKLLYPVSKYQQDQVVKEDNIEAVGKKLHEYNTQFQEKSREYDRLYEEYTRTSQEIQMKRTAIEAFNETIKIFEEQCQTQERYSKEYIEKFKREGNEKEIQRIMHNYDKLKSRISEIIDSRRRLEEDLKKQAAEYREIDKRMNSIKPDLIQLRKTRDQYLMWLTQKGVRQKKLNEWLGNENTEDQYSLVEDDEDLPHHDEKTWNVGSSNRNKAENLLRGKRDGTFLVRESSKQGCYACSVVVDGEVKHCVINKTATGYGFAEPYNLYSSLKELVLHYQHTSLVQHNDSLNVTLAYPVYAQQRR
PI3Kα, sequence (P42336 whole entry): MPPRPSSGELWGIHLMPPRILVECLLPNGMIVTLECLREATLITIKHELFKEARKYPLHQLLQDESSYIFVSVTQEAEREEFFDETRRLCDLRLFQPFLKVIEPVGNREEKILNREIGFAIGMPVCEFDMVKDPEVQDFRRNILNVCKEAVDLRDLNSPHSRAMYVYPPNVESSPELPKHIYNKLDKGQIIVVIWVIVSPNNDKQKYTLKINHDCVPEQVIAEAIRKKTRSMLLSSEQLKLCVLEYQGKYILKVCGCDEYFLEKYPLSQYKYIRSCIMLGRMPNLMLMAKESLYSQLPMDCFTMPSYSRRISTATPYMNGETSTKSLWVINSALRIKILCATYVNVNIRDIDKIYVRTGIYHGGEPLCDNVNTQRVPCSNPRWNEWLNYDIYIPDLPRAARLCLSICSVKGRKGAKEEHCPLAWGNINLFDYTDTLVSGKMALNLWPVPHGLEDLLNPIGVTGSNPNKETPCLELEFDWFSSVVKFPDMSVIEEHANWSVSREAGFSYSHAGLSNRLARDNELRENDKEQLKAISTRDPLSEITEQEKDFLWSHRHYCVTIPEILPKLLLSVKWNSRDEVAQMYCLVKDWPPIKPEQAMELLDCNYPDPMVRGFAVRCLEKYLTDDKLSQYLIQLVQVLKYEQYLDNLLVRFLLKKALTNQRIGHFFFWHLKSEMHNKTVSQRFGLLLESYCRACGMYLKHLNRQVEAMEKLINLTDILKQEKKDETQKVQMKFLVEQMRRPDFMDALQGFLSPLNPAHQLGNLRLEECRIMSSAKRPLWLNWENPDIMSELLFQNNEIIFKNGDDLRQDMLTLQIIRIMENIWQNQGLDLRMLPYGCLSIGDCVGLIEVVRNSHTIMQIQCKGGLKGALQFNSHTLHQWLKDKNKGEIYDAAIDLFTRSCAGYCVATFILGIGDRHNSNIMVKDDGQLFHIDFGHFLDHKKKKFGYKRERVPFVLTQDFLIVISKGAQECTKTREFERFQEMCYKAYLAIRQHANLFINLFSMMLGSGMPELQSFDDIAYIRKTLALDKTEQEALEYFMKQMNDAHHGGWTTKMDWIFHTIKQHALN

SMILES	IC50 (PI3K gamma) [nM]	IC50 (PI3Kα) [nM]
CC(C)(Cc1c(F)cccc1F)Nc1nc(N2CCOCC2)nc(-n2c(C(F)F)nc3ccccc32)n1 [Compound A52, 4-(2-(difluoromethyl)-1H-benzo[d]imidazol-1-yl)-N-(1-(2,6-difluorophenyl)-2-methylpropan-2-yl)-6-morpholino-1,3,5-triazin-2-amine]	≤ 100	> 500
CC(C)N1CCC(c2ccccc2CC(C)(C)Nc2nc(N3CCOCC3)nc(-n3c(C(F)F)nc4ccccc43)n2)CC1 [Compound A71, 4-(2-(difluoromethyl)-1H-benzo[d]imidazol-1-yl)-N-(1-(2-(1-isopropylpiperidin-4-yl)phenyl)-2-methylpropan-2-yl)-6-morpholino-1,3,5-triazin-2-amine]	> 500	> 500
CC(C)(Cc1ccccc1-c1cccc(CN2CCOCC2)c1)Nc1nc(N2CCOCC2)nc(-n2c(C(F)F)nc3ccccc32)n1 [Compound A65, 4-(2-(difluoromethyl)-1H-benzo[d]imidazol-1-yl)-N-(2-methyl-1-(3′-(morpholinomethyl)biphenyl-2-yl)propan-2-yl)-6-morpholino-1,3,5-triazin-2-amine]	100 to 200	> 500
CN1CCN(c2cc(-c3ccccc3CC(C)(C)Nc3nc(N4CCOCC4)nc(-n4c(C(F)F)nc5ccccc54)n3)ccn2)CC1 [Compound A64, 4-(2-(difluoromethyl)-1H-benzo[d]imidazol-1-yl)-N-(2-methyl-1-(2-(2-(4-methylpiperazin-1-yl)pyridin-4-yl)phenyl)propan-2-yl)-6-morpholino-1,3,5-triazin-2-amine]	> 500	> 500
CC(C)(Cc1cccc(F)c1)Nc1nc(N2CCOCC2)nc(-n2c(C(F)F)nc3ccccc32)n1 [Compound A39, 4-(2-(difluoromethyl)-1H-benzo[d]imidazol-1-yl)-N-(1-(3-fluorophenyl)-2-methylpropan-2-yl)-6-morpholino-1,3,5-triazin-2-amine]	200 to 500	> 500
Cn1cc(-c2ccccc2CC(C)(C)Nc2nc(N3CCOCC3)nc(-n3c(C(F)F)nc4ccccc43)n2)cn1 [Compound A45, 4-(2-(difluoromethyl)-1H-benzo[d]imidazol-1-yl)-N-(2-methyl-1-(2-(1-methyl-1H-pyrazol-4-yl)phenyl)propan-2-yl)-6-morpholino-1,3,5-triazin-2-amine]	200 to 500	200 to 500
CC(C)(Cc1ccccc1C1CCNCC1)Nc1nc(N2CCOCC2)nc(-n2c(C(F)F)nc3ccccc32)n1 [Compound A68, 4-(2-(difluoromethyl)-1H-benzo[d]imidazol-1-yl)-N-(2-methyl-1-(2-(piperidin-4-yl)phenyl)propan-2-yl)-6-morpholino-1,3,5-triazin-2-amine]	> 500	> 500
CC(C)(Cc1ccccc1)Nc1nc(N2CCOCC2)nc(-n2c(C(F)F)nc3ccccc32)n1 [Compound A14, 4-(2-(difluoromethyl)-1H-benzo[d]imidazol-1-yl)-N-(2-methyl-1-phenylpropan-2-yl)-6-morpholino-1,3,5-triazin-2-amine]	200 to 500	> 500
CC(C)(Cc1ccccc1C1CCNC1)Nc1nc(N2CCOCC2)nc(-n2c(C(F)F)nc3ccccc32)n1 (centres unmarked) [Compound A74, 4-(2-(difluoromethyl)-1H-benzo[d]imidazol-1-yl)-N-(2-methyl-1-(2-(pyrrolidin-3-yl)phenyl)propan-2-yl)-6-morpholino-1,3,5-triazin-2-amine]	> 500	> 500
CC(C)(Cc1ccc(F)cc1F)Nc1nc(N2CCOCC2)nc(-n2c(C(F)F)nc3ccccc32)n1 [Compound A51, 4-(2-(difluoromethyl)-1H-benzo[d]imidazol-1-yl)-N-(1-(2,4-difluorophenyl)-2-methylpropan-2-yl)-6-morpholino-1,3,5-triazin-2-amine]	200 to 500	> 500
Cc1cccc(CC(C)(C)Nc2nc(N3CCOCC3)nc(-n3c(C(F)F)nc4ccccc43)n2)c1 [Compound A49, 4-(2-(difluoromethyl)-1H-benzo[d]imidazol-1-yl)-N-(2-methyl-1-m-tolylpropan-2-yl)-6-morpholino-1,3,5-triazin-2-amine]	200 to 500	> 500
CC(C)(Cc1ccccc1-c1cccnc1)Nc1nc(N2CCOCC2)nc(-n2c(C(F)F)nc3ccccc32)n1 [Compound A40, 4-(2-(difluoromethyl)-1H-benzo[d]imidazol-1-yl)-N-(2-methyl-1-(2-(pyridin-3-yl)phenyl)propan-2-yl)-6-morpholino-1,3,5-triazin-2-amine]	200 to 500	> 500
CC(C)(Cc1ccccc1-c1cncnc1)Nc1nc(N2CCOCC2)nc(-n2c(C(F)F)nc3ccccc32)n1 [Compound A63, 4-(2-(difluoromethyl)-1H-benzo[d]imidazol-1-yl)-N-(2-methyl-1-(2-(pyrimidin-5-yl)phenyl)propan-2-yl)-6-morpholino-1,3,5-triazin-2-amine]	200 to 500	> 500
Cc1cc(-c2ccccc2CC(C)(C)Nc2nc(N3CCOCC3)nc(-n3c(C(F)F)nc4ccccc43)n2)ccn1 [Compound A43, 4-(2-(difluoromethyl)-1H-benzo[d]imidazol-1-yl)-N-(2-methyl-1-(2-(2-methylpyridin-4-yl)phenyl)propan-2-yl)-6-morpholino-1,3,5-triazin-2-amine]	> 500	> 500
Cn1nccc1-c1ccccc1CC(C)(C)Nc1nc(N2CCOCC2)nc(-n2c(C(F)F)nc3ccccc32)n1 [Compound A46, 4-(2-(difluoromethyl)-1H-benzo[d]imidazol-1-yl)-N-(2-methyl-1-(2-(1-methyl-1H-pyrazol-5-yl)phenyl)propan-2-yl)-6-morpholino-1,3,5-triazin-2-amine]	> 500	> 500
CC(C)(Cc1ccccc1-c1cn[nH]c1)Nc1nc(N2CCOCC2)nc(-n2c(C(F)F)nc3ccccc32)n1 [Compound A44, 4-(2-(difluoromethyl)-1H-benzo[d]imidazol-1-yl)-N-(1-(2-(1H-pyrazol-4-yl)phenyl)-2-methylpropan-2-yl)-6-morpholino-1,3,5-triazin-2-amine]	100 to 200	> 500
COc1cc(-c2ccccc2CC(C)(C)Nc2nc(N3CCOCC3)nc(-n3c(C(F)F)nc4ccccc43)n2)ccn1 [Compound A41, 4-(2-(difluoromethyl)-1H-benzo[d]imidazol-1-yl)-N-(1-(2-(2-methoxypyridin-4-yl)phenyl)-2-methylpropan-2-yl)-6-morpholino-1,3,5-triazin-2-amine]	> 500	> 500
CC(C)(Cc1ccccc1-c1ccccc1F)Nc1nc(N2CCOCC2)nc(-n2c(C(F)F)nc3ccccc32)n1 [Compound A59, 4-(2-(difluoromethyl)-1H-benzo[d]imidazol-1-yl)-N-(1-(2′-fluorobiphenyl-2-yl)-2-methylpropan-2-yl)-6-morpholino-1,3,5-triazin-2-amine]	> 500	> 500
CC(=O)N1CCC(c2ccccc2CC(C)(C)Nc2nc(N3CCOCC3)nc(-n3c(C(F)F)nc4ccccc43)n2)CC1 [Compound A72, 4-(2-(difluoromethyl)-1H-benzo[d]imidazol-1-yl)-N-(2-methyl-1-(2-(1-acetylpiperidin-4-yl)phenyl)propan-2-yl)-6-morpholino-1,3,5-triazin-2-amine]	≤ 100	200 to 500
